According to article PMC11953117 (Cancer Chemotherapy and Pharmacology, 2025):
Like-named read-outs stand apart in the source and are kept apart here.

Assays:
[1] = cited from earlier work
[2] = Capivasertib exposure metrics at steady state projected with PopPK model, patients with solid tumors; type: in vivo; conditions: human, plasma, oral; for concentration at 12 h: read-out: Cmin
Description: Study 1 (NCT01226316) was a phase 1 open-label multipart study. […] The duration of the treatment cycles was 21 days. […] [18]. […] [18, 25, 39].
Study 4 (NCT01353781) was a phase 1 dose-escalation study in Japanese patients with advanced solid malignancies.
The exposure–response analyses were conducted using a subset of patients from the PopPK analysis where capivasertib was used as monotherapy. […] As different schedules were assessed between and within studies, the exposure metrics were derived for the last dose of the last dosing day in the second week of treatment (i.e. on days 14, 11, and 9 for the continuous, [4/3] and [2/5] schedules, respectively), to ensure SS conditions, using the planned dose. […] The relative dose intensity (RDI) was calculated as the percentage of the average weekly dose relative to the PWD to examine the tolerability of capivasertib monotherapy at the given dosing schedules.

[3] = 80 mg, Study 1, Continuous BID, PWD 1120 mg, N=5, median (range)
[4] = 80 mg, Study 4 (Japanese patients), Continuous BID, PWD 1120 mg, N=3, median (range)
[5] = 240 mg, Study 4 (Japanese patients), Continuous BID, PWD 3360 mg, N=7, median (range)
[6] = 320 mg, Study 4 (Japanese patients), Continuous BID, PWD 4480 mg, N=6, median (range)
[7] = 360 mg, Study 4 (Japanese patients), [4/3] BID, PWD 2880 mg, N=8, median (range)
[8] = 400 mg, Study 4 (Japanese patients), Continuous BID, PWD 5600 mg, N=5, median (range)
[9] = 480 mg, OAK, [4/3] BID, PWD 3840 mg, N=30, median (range)
[10] = 480 mg, Study 1, [4/3] BID, PWD 3840 mg, N=127, median (range)
[11] = 480 mg, Study 4 (Japanese patients), [4/3] BID, PWD 3840 mg, N=6, median (range)

NC1(C(=O)N[C@@H](CCO)c2ccc(Cl)cc2)CCN(c2ncnc3[nH]ccc23)CC1 [capivasertib, 4-amino-N-[(1S)-1-(4-chlorophenyl)-3-hydroxypropyl]-1-(7H-pyrrolo[2,3-d]pyrimidin– 4-yl)piperidine-4-carboxamide]
dose proportionality of plasma exposure ([1]; dose range of 80–480 mg): approximately dose proportional | half-life ([1]; patients): approximately 8 h | AUC ([2]; 80 mg, Study 1, Continuous BID, 80 mg, PWD 1120 mg, N=5, median (range), read-out: AUCss(0–12 h)): 870 ng·h/mL | concentration at 12 h ([2]; 80 mg, Study 1, Continuous BID, 80 mg, PWD 1120 mg, N=5, median (range)): 30 ng/mL | AUC at 1 week [2, 3]: 12200 ng·h/mL | Cmax [2, 3]: 150 ng/mL | AUC ([2]; 80 mg, Study 4 (Japanese patients), Continuous BID, 80 mg, PWD 1120 mg, N=3, median (range), read-out: AUCss(0–12 h)): 1480 ng·h/mL | concentration at 12 h ([2]; 80 mg, Study 4 (Japanese patients), Continuous BID, 80 mg, PWD 1120 mg, N=3, median (range)): 60 ng/mL | AUC at 1 week [2, 4]: 20700 ng·h/mL | Cmax [2, 4]: 220 ng/mL | AUC ([2]; 160 mg, Study 1, Continuous BID, 160 mg, PWD 2240 mg, N=5, median (range), read-out: AUCPWD): 41800 ng·h/mL | AUC ([2]; 160 mg, Study 1, Continuous BID, 160 mg, PWD 2240 mg, N=5, median (range), read-out: AUCss(0–12 h)): 2990 ng·h/mL | concentration at 12 h ([2]; 160 mg, Study 1, Continuous BID, 160 mg, PWD 2240 mg, N=5, median (range)): 110 ng/mL | Cmax ([2]; 160 mg, Study 1, Continuous BID, PWD 2240 mg, N=5, median (range)): 420 ng/mL | AUC ([2]; 240 mg, Study 1, Continuous BID, 240 mg, PWD 3360 mg, N=6, median (range), read-out: AUCPWD): 44700 ng·h/mL | AUC ([2]; 240 mg, Study 1, Continuous BID, 240 mg, PWD 3360 mg, N=6, median (range), read-out: AUCss(0–12 h)): 3190 ng·h/mL | concentration at 12 h ([2]; 240 mg, Study 1, Continuous BID, 240 mg, PWD 3360 mg, N=6, median (range)): 110 ng/mL | Cmax ([2]; 240 mg, Study 1, Continuous BID, PWD 3360 mg, N=6, median (range)): 530 ng/mL | AUC ([2]; 240 mg, Study 4 (Japanese patients), Continuous BID, 240 mg, PWD 3360 mg, N=7, median (range), read-out: AUCss(0–12 h)): 5220 ng·h/mL | concentration at 12 h ([2]; 240 mg, Study 4 (Japanese patients), Continuous BID, 240 mg, PWD 3360 mg, N=7, median (range)): 170 ng/mL | AUC at 1 week [2, 5]: 73000 ng·h/mL | Cmax [2, 5]: 820 ng/mL | AUC ([2]; 320 mg, Study 1, Continuous BID, 320 mg, PWD 4480 mg, N=12, median (range), read-out: AUCPWD): 82000 ng·h/mL | AUC ([2]; 320 mg, Study 1, Continuous BID, 320 mg, PWD 4480 mg, N=12, median (range), read-out: AUCss(0–12 h)): 5860 ng·h/mL | concentration at 12 h ([2]; 320 mg, Study 1, Continuous BID, 320 mg, PWD 4480 mg, N=12, median (range)): 200 ng/mL | Cmax ([2]; 320 mg, Study 1, Continuous BID, PWD 4480 mg, N=12, median (range)): 870 ng/mL | AUC ([2]; 320 mg, Study 4 (Japanese patients), Continuous BID, 320 mg, PWD 4480 mg, N=6, median (range), read-out: AUCss(0–12 h)): 6560 ng·h/mL | concentration at 12 h ([2]; 320 mg, Study 4 (Japanese patients), Continuous BID, 320 mg, PWD 4480 mg, N=6, median (range)): 150 ng/mL | AUC at 1 week [2, 6]: 91800 ng·h/mL | Cmax [2, 6]: 1380 ng/mL | AUC ([2]; 360 mg, Study 4 (Japanese patients), [4/3] BID, 360 mg, PWD 2880 mg, N=8, median (range), read-out: AUCss(0–12 h)): 6100 ng·h/mL | concentration at 12 h ([2]; 360 mg, Study 4 (Japanese patients), [4/3] BID, 360 mg, PWD 2880 mg, N=8, median (range)): 210 ng/mL | AUC at 1 week [2, 7]: 48800 ng·h/mL | Cmax [2, 7]: 960 ng/mL | AUC ([2]; 400 mg, Study 1, Continuous BID, 400 mg, PWD 5600 mg, N=11, median (range), read-out: AUCPWD): 81000 ng·h/mL | AUC ([2]; 400 mg, Study 1, Continuous BID, 400 mg, PWD 5600 mg, N=11, median (range), read-out: AUCss(0–12 h)): 5790 ng·h/mL | concentration at 12 h ([2]; 400 mg, Study 1, Continuous BID, 400 mg, PWD 5600 mg, N=11, median (range)): 190 ng/mL | Cmax ([2]; 400 mg, Study 1, Continuous BID, PWD 5600 mg, N=11, median (range)): 900 ng/mL | AUC ([2]; 400 mg, Study 4 (Japanese patients), Continuous BID, 400 mg, PWD 5600 mg, N=5, median (range), read-out: AUCss(0–12 h)): 7750 ng·h/mL | concentration at 12 h ([2]; 400 mg, Study 4 (Japanese patients), Continuous BID, 400 mg, PWD 5600 mg, N=5, median (range)): 270 ng/mL | AUC at 1 week [2, 8]: 109000 ng·h/mL | Cmax [2, 8]: 1240 ng/mL | AUC ([2]; 480 mg, OAK, [4/3] BID, 480 mg, PWD 3840 mg, N=30, median (range), read-out: AUCss(0–12 h)): 9750 ng·h/mL | concentration at 12 h ([2]; 480 mg, OAK, [4/3] BID, 480 mg, PWD 3840 mg, N=30, median (range)): 330 ng/mL | AUC at 1 week [2, 9]: 78000 ng·h/mL | Cmax [2, 9]: 1580 ng/mL | AUC ([2]; 480 mg, Study 1, Continuous BID, 480 mg, PWD 6720 mg, N=6, median (range), read-out: AUCPWD): 140000 ng·h/mL | AUC ([2]; 480 mg, Study 1, Continuous BID, 480 mg, PWD 6720 mg, N=6, median (range), read-out: AUCss(0–12 h)): 9980 ng·h/mL | concentration at 12 h ([2]; 480 mg, Study 1, Continuous BID, 480 mg, PWD 6720 mg, N=6, median (range)): 370 ng/mL | Cmax ([2]; 480 mg, Study 1, Continuous BID, PWD 6720 mg, N=6, median (range)): 1620 ng/mL | AUC ([2]; 480 mg, Study 1, [4/3] BID, 480 mg, PWD 3840 mg, N=127, median (range), read-out: AUCss(0–12 h)): 9690 ng·h/mL | concentration at 12 h ([2]; 480 mg, Study 1, [4/3] BID, 480 mg, PWD 3840 mg, N=127, median (range)): 330 ng/mL | AUC at 1 week [2, 10]: 77400 ng·h/mL | Cmax [2, 10]: 1590 ng/mL | AUC ([2]; 480 mg, Study 4 (Japanese patients), [4/3] BID, 480 mg, PWD 3840 mg, N=6, median (range), read-out: AUCss(0–12 h)): 10800 ng·h/mL | concentration at 12 h ([2]; 480 mg, Study 4 (Japanese patients), [4/3] BID, 480 mg, PWD 3840 mg, N=6, median (range)): 290 ng/mL | AUC at 1 week [2, 11]: 86800 ng·h/mL | Cmax [2, 11]: 1880 ng/mL | AUC ([2]; 600 mg, Study 1, Continuous BID, 600 mg, PWD 8400 mg, N=2, median (range), read-out: AUCss(0–12 h)): 14300 ng·h/mL
